Laboratory results taken from patent US20230146455A1, “TREATMENT OF INFLAMMATORY DISEASES WITH PEPTIDES AND PHARMACEUTICAL COMPOSITIONS” (Yuyu Pharma, Inc., priority 2020, published 2023).
Where “and” joins values, the source holds several entries; their conditions need not be identical. Equal entries are not always repeated. Where a SMILES comes first, the peptide text is derived from it. [ ]: non-standard residue; d: D form. Hyp = O=C(O)[C@@H]1C[C@@H](O)CN1

Tested on: IL-1 alpha/IL-1F1
Assay: Example 8 main study Luminex, LPS hPBMCs: IL-1 alpha/IL-1F1
Type: cell-based, human
Method: Human PBMCs were pretreated with YY-101, YDE-011, YDE-043 or reference compound; Xiidra® at various concentration (ranging from […] to 500 nM) for 2 h before stimulation. An equal volume of 0.5% DMSO was used as a vehicle control. Then, the cells were treated with LPS at 5 ug/ml, which was selected based on the pilot study. The supernatants from treated cells were harvested at 24 h and placed in a 96 well for Luminex cytokine & chemokine profiling using a Luminex 200 multiplex assay (Luminex; R&D system, USA).
The main study arm with triplicate wells per group in a 24-well plate: • 1. Blank • 2. PBMC: 0.5% DMSO • 3. PBMC+LPS (5 ug/ml) • 4. PBMC+YY-101 500 nM • 5. PBMC+YY-101 50 nM • 6. PBMC+YY-101 5 nM • 7. PBMC+YY-101 0.5 nM • 8. PBMC+LPS (5 ug/ml)+Xiidra® 500 nM • 9. PBMC+LPS (5 ug/ml)+Xiidra® 50 nM • 10. PBMC+LPS (5 ug/ml)+Xiidra® 5 nM • 11. PBMC+LPS (5 ug/ml)+Xiidra® 0.5 nM • 12. PBMC+LPS (5 ug/ml)+Xiidra® 0.05 nM • 13. PBMC+LPS (5 ug/ml)+Xiidra® 0.005 nM • 14. PBMC+LPS (5 ug/ml)+YY-101 500 nM • 15. PBMC+LPS (5 ug/ml)+YY-101 50 nM • 16. PBMC+LPS (5 ug/ml)+YY-101 5 nM • 17. PBMC+LPS (5 ug/ml)+YY-101 0.5 nM • 18. PBMC+LPS (5 ug/ml)+YY-101 0.05 nM • 19. PBMC+LPS (5 ug/ml)+YY-101 0.005 nM • 20. PBMC+LPS (5 ug/ml)+YDE-011 500 nM • 21. PBMC+LPS (5 ug/ml)+YDE-011 50 nM • 22. PBMC+LPS (5 ug/ml)+YDE-011 5 nM • 23. PBMC+LPS (5 ug/ml)+YDE-011 0.5 nM • 24. PBMC+LPS (5 ug/ml)+YDE-011 0.05 nM • 25. PBMC+LPS (5 ug/ml)+YDE-011 0.005 nM • 26. PBMC+LPS (5 ug/ml)+YDE-043 500 nM • 27. PBMC+LPS (5 ug/ml)+YDE-043 50 nM • 28. PBMC+LPS (5 ug/ml)+YDE-043 5 nM • 29. PBMC+LPS (5 ug/ml)+YDE-043 0.5 nM • 30. PBMC+LPS (5 ug/ml)+YDE-043 0.05 nM • 31. PBMC+LPS (5 ug/ml)+YDE-043 0.005 nM
Multiplex assay was used to measure 30 cytokines and chemokines. The 1:200 diluted cell supernatant and serial dilution of the standard were dispensed into a 96 well plate at 50 ul/well. Then, the pre-mixed cocktail of antibody-coated magnetic beads was dispensed at 50 ul/well and incubated at room temperature for 2 h in a horizontal orbital microplate shaker at 800±500 rpm. The beads were washed using a magnetic device to prevent loss. The biotin-antibody was dispensed in 50 ul of each well and incubated at room temperature for 1 h in a shaker at 800±500 rpm. After washing, streptavidin-PE was added at 50 ul/well and incubated at room temperature for 30 min in a shaker under the same conditions. Finally, after washing, wash buffer (100 ul/well) was added to the plate and incubated in a shaker for 2 min. The Luminex™ 200 setting were set according to the manufacturer's protocol. The data was calculated with a standard five-parameter logistic nonlinear regression analysis of the data (xPonent software 4.2, USA). Results were presented as concentration (ng/ml or pg/ml).

[1] = PBMC + LPS(5 ug/ml) + test article 0.005 nM, Mean
[2] = PBMC + LPS(5 ug/ml) + test article 0.005 nM, individual replicates
[3] = PBMC + LPS(5 ug/ml) + test article 0.05 nM, Mean
[4] = PBMC + LPS(5 ug/ml) + test article 0.05 nM, individual replicates
[5] = PBMC + LPS(5 ug/ml) + test article 0.5 nM, Mean
[6] = PBMC + LPS(5 ug/ml) + test article 0.5 nM, individual replicates
[7] = PBMC + LPS(5 ug/ml) + test article 5 nM, Mean
[8] = PBMC + LPS(5 ug/ml) + test article 5 nM, individual replicates
[9] = PBMC + LPS(5 ug/ml) + test article 50 nM, Mean
[10] = PBMC + LPS(5 ug/ml) + test article 50 nM, individual replicates
[11] = PBMC + LPS(5 ug/ml) + test article 500 nM, Mean
[12] = PBMC + LPS(5 ug/ml) + test article 500 nM, individual replicates

In the case of `CC(C)C[C@H](NC(=O)[C@H](CCC(N)=O)NC(=O)CNC(=O)[C@@H]1C[C@@H](O)CN1)C(=O)NCC(=O)O` [YDE-043] (H-[Hyp]GQLG-OH; N-terminus and C-terminus assumed), the “LPS-induced IL-1a levels (in words)” value (LPS 5 ug/mL 24 hrs) is reported as “significantly lowered”, the “IL-1 alpha/IL-1F1 Concentration” value [1] is reported as 489.6 pg/mL and the “IL-1 alpha/IL-1F1 MFI” value [1] is reported as 30.5. For the same molecule, the “IL-1 alpha/IL-1F1 Concentration” value [2] was 383.2 pg/mL and 490.5 pg/mL and 595.1 pg/mL, the “IL-1 alpha/IL-1F1 MFI” value [2] was 27.0 and 30.5 and 34.0 and the “IL-1 alpha/IL-1F1 Concentration” value [3] was 330.9 pg/mL. The “IL-1 alpha/IL-1F1 MFI” value [3] was 25.3, the “IL-1 alpha/IL-1F1 Concentration” value [4] was 351.9 pg/ml and 320.3 pg/ml (2×) and the “IL-1 alpha/IL-1F1 MFI” value [4] was 26.0 and 25.0 (2×). The “IL-1 alpha/IL-1F1 Concentration” value [5] was 351.9 pg/mL, the “IL-1 alpha/IL-1F1 MFI” value [5] was 26.0 and the “IL-1 alpha/IL-1F1 Concentration” value [6] was 351.9 pg/mL and 367.6 pg/mL and 336.2 pg/mL. For the same molecule, the “IL-1 alpha/IL-1F1 MFI” value [6] was 26.0 and 26.5 and 25.5, the “IL-1 alpha/IL-1F1 Concentration” value [7] was 465.1 pg/mL and the “IL-1 alpha/IL-1F1 MFI” value [7] was 29.7. For the same molecule, the “IL-1 alpha/IL-1F1 Concentration” value [8] was 505.6 pg/ml and 444.9 pg/ml (2×), the “IL-1 alpha/IL-1F1 MFI” value [8] was 31.0 and 29.0 (2×) and the “IL-1 alpha/IL-1F1 Concentration” value [9] was 434.5 pg/mL. For the same molecule, the “IL-1 alpha/IL-1F1 MFI” value [9] was 28.7, the “IL-1 alpha/IL-1F1 Concentration” value [10] was 475.3 pg/mL and 444.9 pg/mL and 383.2 pg/mL and the “IL-1 alpha/IL-1F1 MFI” value [10] was 30.0 and 29.0 and 27.0. The “IL-1 alpha/IL-1F1 Concentration” value [11] was 424.2 pg/mL, the “IL-1 alpha/IL-1F1 MFI” value [11] was 28.3 and the “IL-1 alpha/IL-1F1 Concentration” value [12] was 475.3 pg/mL and 414.2 pg/mL and 383.2 pg/mL. For the same molecule, the “IL-1 alpha/IL-1F1 MFI” value [12] was 30.0 and 28.0 and 27.0.
